Data from patent US5157052A, “Method for inhibiting IgE production” (priority 1990, dated 1992).

Tests used:
IgE [1] = assay: Serum IgE response induced by FF1-4D5 + H∂A1 anti-IgD antibodies (ELISA, Assay A / Assay F); format: in vivo, mouse (Balb/c female); conditions: 20 μg days 3 and 4
Procedure, shortened: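 Transient IgE response induced in female Balb/c mice (10–20 weeks) by a day-0 i.v. or s.c. injection of 100 μg each of anti-IgD FF1-4D5 and H.δA1. Serum IgE measured by sandwich ELISA (B1E3 capture, biotinylated R1E4 detection, avidin-biotin-HRP/ABTS), quantified against an IgE standard curve corrected for serum dilution.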

IgG3 = assay: Serum IgG3 in anti-IgD stimulated mice (two site sandwich ELISA, Assay D); format: in vivo, mouse (Balb/c female); conditions: 20 μg days 3 and 4
IgE [2] = assay: ED50 for inhibition of IgE calculated from the examples; format: in vivo, mouse; conditions: dose to achieve 50% inhibition of IgE
Experimental: From the data in the above examples, the effective dose of each prostaglandin to achieve 50% inhibition of IgE (ED50) was calculated.

## CCCCC(C)(O)C/C=C/[C@H]1[C@H](O)CC(=O)[C@@H]1C/C=C\C=CCC(=O)OC (relative stereo) [(±) methyl 11α,16-dihydroxy-16-methyl-9-oxoprosta-3,5Z,13-trien-1-oate]
IgE [1]; Example 25
  de novo IgE synthesis: inhibit de novo IgE synthesis
IgE [1]; Table 14, day 8 (control 6071)
  IgE ± SD: 1176 ± 137 ng/mL
IgG3; Example 25
  inhibition of IgG3: not IgG1, IgG2a, IgG3 and IgM
IgG3; Table 14, day 8 (control 1538)
  IgG3 ± SD: 1709 ± 429 µg/mL
IgE [2]
  ED50 IgE Inhibition: 6.5 μg/mouse/TID
